We go through one compound from patent EP3820879B1, “PHOSPHORUS-CONTAINING PRODRUGS OF GEMCITABINE” (Changchun Changcheng Pharmaceutical Technology Co., LTD, priority 2018, dated 2020).

The nature of the data set: Mouse pharmacokinetic study: liver concentrations of dFdC and dFdU at 2h. The conditions noted are these: i.v., Gemcitabine 15 mg/kg or Compound 4 at equivalent dose, Fig. 2. The data set is classed as in vivo, C57BL/6 mice. Here is the method: C57BL/6 mice used in this experiment were purchased from Beijing Vital River Laboratory Animal Technology Co., Ltd., and male mice with a body weight in the range of 16~19 g were tested for administration. The animals were housed with appropriate air conditions (temperature: 20~25 °C; humidity: 40%~70%; light/dark cycle: 12 hours), and were provided with the food and water ad lib.
The solution media for IV administration were DMSO: 30% solutol HS-15:saline = 10:10:80 (v/v/v). Test substances were dissolved in the media to obtain a clear solution, and filtered through PTFE to get a colorless clear solution for IV administration.
The solution media for oral administration were DMSO: 30% solutol HS-15:saline = 10:10:80 (v/v/v). […]
The pharmacokinetic (PK) profile of liver-targeted gemcitabine (dFdC) prodrug according to Formula I (i.e., Compound 4) was evaluated in male […] mice following intravenous administration (i.v.) at an equivalent dose to 15 mg/kg of Gemcitabine or following oral administration (PO or i.g.) at a dose of 80 mg/kg.
Blood samples of designated animals (n = 3/time point/compound) were taken at 0.083, 0.25, 0.5, 1, 2, 4, and 8 hours following i.v. administration, and at 0.25, 0.5, 1, 2, 4, 8 and 24 hours following PO administration, respectively. […] Pharmacokinetic parameters were calculated using WinNonlin software (Pharsight Corp., Mountain View, CA).

For the compound `Nc1ccn([C@@H]2O[C@H](CO)[C@@H](O)C2(F)F)c(=O)n1` [Gemcitabine, 2',2'-difluoro-2'-deoxycytidine], the “dFdC levels in the liver” value was “no detectable dFdC levels” and the “dFdU levels in the liver” value was “significant levels of dFdU”.
